{"source": "ChEMBL document CHEMBL5523716", "about": "“Discovery of novel EGFR-PROTACs capable of degradation of multiple EGFR-mutated proteins” (Eur J Med Chem, 2024)", "key": {"A-431": {"tested_on": "A-431", "experiment": "Antiproliferative activity against human A-431 cells harboring EGFR wild type assessed as inhibition of cell growth incubated for 48 to 72 hrs by CCK-8 assay", "format": "functional, cell-based"}, "[1]": {"experiment": "Metabolic stability in human liver microsomes assessed as elimination rate constant at 1 uM incubated upto 60 mins in presence of NADPH by LC-MS/MS analysis", "format": "ADME, Microsome"}, "[2]": {"experiment": "Metabolic stability in rat liver microsomes assessed as elimination rate constant at 1 uM incubated upto 60 mins in presence of NADPH by LC-MS/MS analysis", "format": "ADME, Microsome"}, "[3]": {"experiment": "Metabolic stability in human liver microsomes assessed as half-life at 1 uM incubated upto 60 mins in presence of NADPH by LC-MS/MS analysis", "format": "ADME, Microsome"}, "[4]": {"experiment": "Metabolic stability in monkey liver microsomes assessed as half-life at 1 uM incubated upto 60 mins in presence of NADPH by LC-MS/MS analysis", "format": "ADME, Macaca mulatta, Microsome", "details": "rhesus monkey"}, "[5]": {"experiment": "Metabolic stability in human liver microsomes assessed as intrinsic clearance at 1 uM incubated upto 60 mins in presence of NADPH by LC-MS/MS analysis", "format": "ADME, Microsome", "details": "read-out: CLH"}, "[6]": {"experiment": "Metabolic stability in monkey liver microsomes assessed as intrinsic clearance at 1 uM incubated upto 60 mins in presence of NADPH by LC-MS/MS analysis", "format": "ADME, Macaca mulatta, Microsome", "details": "rhesus monkey, read-out: CLH"}, "[7]": {"experiment": "Metabolic stability in dog liver microsomes assessed as intrinsic clearance at 1 uM incubated upto 60 mins in presence of NADPH by LC-MS/MS analysis", "format": "ADME, Canis lupus familiaris, Microsome", "details": "read-out: CLH"}, "[8]": {"experiment": "Metabolic stability in mouse liver microsomes assessed as intrinsic clearance at 1 uM incubated upto 60 mins in presence of NADPH by LC-MS/MS analysis", "format": "ADME, Microsome", "details": "read-out: CLH"}, "[9]": {"experiment": "Tmax in SPF ICR mouse at 2 mg/kg,iv measured upto 24 hrs by LC-MS/MS analysis", "format": "ADME, organism-based", "details": "in vivo"}, "[10]": {"experiment": "Tmax in SPF ICR mouse at 5 mg/kg,ip measured upto 24 hrs by LC-MS/MS analysis", "format": "ADME, organism-based", "details": "in vivo"}, "[11]": {"experiment": "Cmax in SPF ICR mouse at 5 mg/kg,ip measured upto 24 hrs by LC-MS/MS analysis", "format": "ADME, organism-based", "details": "in vivo"}, "[12]": {"experiment": "AUC (0 to infinity) in SPF ICR mouse at 5 mg/kg,ip measured upto 24 hrs by LC-MS/MS analysis", "format": "ADME, organism-based", "details": "in vivo"}, "[13]": {"experiment": "MRT (0 to t) in SPF ICR mouse at 5 mg/kg,ip measured upto 24 hrs by LC-MS/MS analysis", "format": "ADME, organism-based", "details": "in vivo"}, "[14]": {"experiment": "MRT (0 to infinity) in SPF ICR mouse at 2 mg/kg,iv measured upto 24 hrs by LC-MS/MS analysis", "format": "ADME, organism-based", "details": "in vivo"}, "[15]": {"target": "von Hippel-Lindau disease tumor suppressor/Epidermal growth factor receptor (Homo sapiens, UniProt P00533+P40337)", "experiment": "PROTAC activity at VHL/EGFR Del19 mutant in human HCC827 cells assessed as induction of EGFR degradation incubated for 72 hrs by Western blot analysis", "format": "cell-based"}, "[16]": {"tested_on": "von Hippel-Lindau disease tumor suppressor/Epidermal growth factor receptor (Homo sapiens), P00533+P40337 [UNDEFINED MUTATION]", "experiment": "PROTAC activity at VHL/EGFR Del19 mutant in human HCC827 cells assessed as maximal EGFR degradation at 1.56 to 100 nM incubated for 72 hrs by Western blot analysis relative to control", "format": "cell-based", "details": "dose 1.56-100 nM"}, "[17]": {"tested_on": "von Hippel-Lindau disease tumor suppressor/Epidermal growth factor receptor (Homo sapiens), P00533+P40337 [UNDEFINED MUTATION]", "experiment": "PROTAC activity at VHL/EGFR Del19 mutant in human HCC827 cells assessed as downregulation of AKT phosphorylation incubated for 72 hrs by Western blot analysis", "format": "cell-based"}, "[18]": {"tested_on": "von Hippel-Lindau disease tumor suppressor/Epidermal growth factor receptor (Homo sapiens), P00533+P40337 [L858R,T790M]", "experiment": "PROTAC activity at VHL/EGFR L858R/T790M mutant in human NCI-H1975 cells assessed as downregulation of AKT phosphorylation incubated for 72 hrs by Western blot analysis", "format": "cell-based"}, "[19]": {"tested_on": "von Hippel-Lindau disease tumor suppressor/Epidermal growth factor receptor (Homo sapiens), P00533+P40337 [L858R,T790M,C797S]", "experiment": "PROTAC activity at VHL/EGFR L858R/T790M/C797S mutant in human H1975-TM cells assessed as downregulation of AKT phosphorylation incubated for 48 hrs by Western blot analysis", "format": "cell-based"}, "[20]": {"tested_on": "von Hippel-Lindau disease tumor suppressor/Epidermal growth factor receptor (Homo sapiens), P00533+P40337 [L858R,T790M,C797S]", "experiment": "PROTAC activity at VHL/EGFR L858R/T790M/C797S mutant in human H1975-TM cells assessed as induction of EGFR degradation at 2.5 uM Western blot analysis", "format": "cell-based", "details": "TDE = time-dependent effect"}, "[21]": {"tested_on": "von Hippel-Lindau disease tumor suppressor/Epidermal growth factor receptor (Homo sapiens), P00533+P40337 [UNDEFINED MUTATION]", "experiment": "PROTAC activity at VHL/EGFR Del19 mutant in human HCC827 cells assessed as induction of EGFR degradation at 100 nM preincubated with MLN-4924 for 6 hrs followed by compound treatment for 48 hrs by Western blot analysis", "format": "cell-based"}, "HCC827": {"tested_on": "HCC827", "experiment": "Antitumor activity against human HCC827 cells xenografted in BALB/c mouse assessed as tumor growth inhibition at 5 mg/kg,ip once daily for 28 days relative to control", "format": "functional", "details": "HCC827, 672 h, time 28 day, read-out: TGI"}, "[22]": {"experiment": "Toxicity in BALB/c mouse xenografted with human HCC827 cells assessed as change in body weight at 1.25 to 5 mg/kg,ip once daily for 28 days", "format": "organism-based", "details": "in vivo, 672 h, dose 1.25-5 mg/kg, time 28 day"}, "NCI-H1975 [23]": {"tested_on": "NCI-H1975", "experiment": "Antitumor activity against human NCI-H1975 cells xenografted in BALB/c mouse assessed as tumor growth inhibition at 5 mg/kg,ip once daily for 22 days relative to control", "format": "functional", "details": "NCI-H1975, 528 h, time 22 day, read-out: TGI"}, "NCI-H1975 [24]": {"tested_on": "NCI-H1975", "experiment": "Antitumor activity against human NCI-H1975 cells xenografted in BALB/c mouse assessed as tumor growth inhibition at 20 mg/kg,ip once daily for 22 days relative to control", "format": "functional", "details": "NCI-H1975, 528 h, time 22 day, read-out: TGI"}, "NCI-H1975 [25]": {"tested_on": "NCI-H1975", "experiment": "Antitumor activity against human NCI-H1975 cells xenografted in BALB/c mouse assessed as increase in EGFR degradation in tumor at 20 mg/kg,ip once daily for 22 days by Western blot analysis relative to control", "format": "functional", "details": "time 22 day"}, "[26]": {"experiment": "Antitumor activity against human H1975-TM cells xenografted in BALB/c mouse assessed as tumor growth inhibition at 5 mg/kg,ip once daily for 14 days relative to control", "format": "functional", "details": "336 h, time 14 day, read-out: TGI"}, "[27]": {"experiment": "Antitumor activity against human H1975-TM cells xenografted in BALB/c mouse assessed as tumor growth inhibition at 20 mg/kg,ip once daily for 14 days relative to control", "format": "functional", "details": "336 h, time 14 day, read-out: TGI"}, "[28]": {"experiment": "Toxicity in BALB/c mouse xenografted with human H1975-TM cells assessed as change in body weight at 5 to 20 mg/kg,ip once daily for 14 days", "format": "organism-based", "details": "in vivo, 336 h, dose 5-20 mg/kg, time 14 day"}, "H1975-TM": {"tested_on": "H1975-TM", "experiment": "Antitumor activity against human H1975-TM cells xenografted in BALB/c mouse assessed as increase in EGFR degradation in tumor at 5 to 20 mg/kg,ip once daily for 14 days by Western blot analysis", "format": "functional, organism-based", "details": "dose 5-20 mg/kg, time 14.0 day"}}, "note": "The source made the active and inactive calls. The rule behind the calls is not given here."}
{"smiles": "CCN(CC)C/C=C/C(=O)Nc1cc2c(Nc3ccc(F)c(Cl)c3)ncnc2cc1OCc1cn(CCCCCCCC(=O)N[C@H](C(=O)N2C[C@H](O)C[C@H]2C(=O)N[C@H](C)c2ccc(-c3scnc3C)cc2)C(C)(C)C)nn1", "values": [{"measurement": "IC50", "setting": "A-431", "result": "> 20000", "unit": "nM"}, {"measurement": "k el at 1 h, 1 µM", "setting": "[1]", "result": 0.0007, "unit": "s⁻¹"}, {"measurement": "k el at 1 h, 1 µM", "setting": "[2]", "result": "6.67e-05", "unit": "s⁻¹"}, {"measurement": "half-life at 1 µM", "setting": "[3]", "result": 16.5, "unit": "min"}, {"measurement": "half-life at 1 µM", "setting": "[4]", "result": 37.9, "unit": "min"}, {"measurement": "microsomal CLint at 1 µM", "setting": "[5]", "result": 84, "unit": "µL/min/mg"}, {"measurement": "microsomal CLint at 1 µM", "setting": "[6]", "result": 36.6, "unit": "µL/min/mg"}, {"measurement": "microsomal CLint at 1 µM", "setting": "[7]", "result": 17.8, "unit": "µL/min/mg"}, {"measurement": "microsomal CLint at 1 µM", "setting": "[8]", "result": 11.8, "unit": "µL/min/mg"}, {"measurement": "Tmax", "setting": "[9]", "result": 4.8, "unit": "min"}, {"measurement": "Tmax", "setting": "[10]", "result": 120, "unit": "min"}, {"measurement": "Cmax", "setting": "[11]", "result": 656, "unit": "ng/mL"}, {"measurement": "AUC(0-inf)", "setting": "[12]", "result": 2830, "unit": "ng·h/mL"}, {"measurement": "MRT last at 24 h", "setting": "[13]", "result": 172, "unit": "min"}, {"measurement": "MRT inf", "setting": "[14]", "result": 20.4, "unit": "min"}, {"measurement": "DC50", "setting": "[15]", "result": 17.9, "unit": "nM"}, {"measurement": "Emax", "setting": "[16]", "result": 100, "unit": "%"}, {"measurement": "Activity", "setting": "[17]", "result": "Dose-Dependent Effect"}, {"measurement": "Activity", "setting": "[18]", "result": "Dose-Dependent Effect"}, {"measurement": "Activity", "setting": "[19]", "result": "Dose-Dependent Effect"}, {"measurement": "Activity", "setting": "[20]", "result": "Tde"}, {"measurement": "Activity", "setting": "[21]", "result": "inactive"}, {"measurement": "inhibition in vivo at 5 mg/kg", "setting": "HCC827", "result": 88, "unit": "%"}, {"measurement": "Activity", "setting": "[22]", "result": "Non-Toxic"}, {"measurement": "inhibition in vivo at 5 mg/kg", "setting": "NCI-H1975 [23]", "result": 56, "unit": "%"}, {"measurement": "inhibition in vivo at 20 mg/kg", "setting": "NCI-H1975 [24]", "result": 85, "unit": "%"}, {"measurement": "Activity", "setting": "NCI-H1975 [25]", "result": ">75", "unit": "%"}, {"measurement": "inhibition in vivo at 5 mg/kg", "setting": "[26]", "result": 24, "unit": "%"}, {"measurement": "inhibition in vivo at 20 mg/kg", "setting": "[27]", "result": 50, "unit": "%"}, {"measurement": "Activity", "setting": "[28]", "result": "Non-Toxic"}, {"measurement": "Activity", "setting": "H1975-TM", "result": "Active"}]}
